Test results published in patent US20050090505A1, “Methods of reducing risk of infection from pathogens” (priority 2003, published 2005).
Where a name gives a salt, the structure may show the parent alone. Read-outs that look alike come from different tables or passages of the source. Blank lines part the entries; values can stand above or below the compound they belong to.

Key:
[1] = target: T1, airway epithelial sodium currents (sodium channel) (UniProt A0A8I3MKE6+A0A8I3Q679+Q95165); assay: Sodium channel blocking activity: inhibition of short circuit current (ISC) in airway epithelial monolayers mounted in Ussing chambers; type: cell-based, human, dog, sheep or rodent; settings: for Fold Amiloride** (PSA 4022 = 100): relative potency for PSA 4022 = 100 using EC50 from PSA 4022 in same run; for EC50: mean ± spread
T1 sequence (A0A8I3MKE6 1-646): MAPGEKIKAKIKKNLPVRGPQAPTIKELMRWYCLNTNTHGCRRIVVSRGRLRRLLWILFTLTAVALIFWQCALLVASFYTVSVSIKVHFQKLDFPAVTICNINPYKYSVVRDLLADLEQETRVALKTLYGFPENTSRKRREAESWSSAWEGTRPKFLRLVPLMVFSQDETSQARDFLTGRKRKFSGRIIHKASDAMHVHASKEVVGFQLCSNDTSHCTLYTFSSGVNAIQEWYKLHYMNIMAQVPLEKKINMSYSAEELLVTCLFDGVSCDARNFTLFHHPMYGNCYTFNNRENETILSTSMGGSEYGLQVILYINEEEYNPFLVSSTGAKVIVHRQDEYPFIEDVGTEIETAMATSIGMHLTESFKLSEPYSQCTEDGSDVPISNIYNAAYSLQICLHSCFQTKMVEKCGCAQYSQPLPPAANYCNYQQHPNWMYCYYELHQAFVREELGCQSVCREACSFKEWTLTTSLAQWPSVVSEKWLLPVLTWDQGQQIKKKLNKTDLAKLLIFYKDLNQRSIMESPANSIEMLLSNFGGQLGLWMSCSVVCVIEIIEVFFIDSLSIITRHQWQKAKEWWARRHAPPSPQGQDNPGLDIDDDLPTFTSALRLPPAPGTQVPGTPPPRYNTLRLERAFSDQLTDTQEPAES
T1 sequence (A0A8I3Q679 1-649): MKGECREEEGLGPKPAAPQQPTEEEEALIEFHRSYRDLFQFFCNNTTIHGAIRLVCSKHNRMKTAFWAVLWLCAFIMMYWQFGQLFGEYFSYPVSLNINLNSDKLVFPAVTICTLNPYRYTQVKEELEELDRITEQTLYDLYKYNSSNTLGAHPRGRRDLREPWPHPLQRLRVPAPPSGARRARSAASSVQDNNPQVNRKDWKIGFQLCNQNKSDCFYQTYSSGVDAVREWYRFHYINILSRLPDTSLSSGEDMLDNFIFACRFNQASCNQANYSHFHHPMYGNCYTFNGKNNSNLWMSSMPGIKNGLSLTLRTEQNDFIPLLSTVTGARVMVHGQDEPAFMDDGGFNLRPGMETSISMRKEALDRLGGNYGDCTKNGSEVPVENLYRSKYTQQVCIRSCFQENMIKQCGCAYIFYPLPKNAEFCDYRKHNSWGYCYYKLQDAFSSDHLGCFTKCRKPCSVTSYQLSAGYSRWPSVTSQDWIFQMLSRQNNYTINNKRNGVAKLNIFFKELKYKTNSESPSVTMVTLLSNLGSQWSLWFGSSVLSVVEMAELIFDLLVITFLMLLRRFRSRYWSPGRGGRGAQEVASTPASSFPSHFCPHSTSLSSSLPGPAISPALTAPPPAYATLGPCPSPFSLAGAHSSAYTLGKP
T1 sequence (Q95165 1-641): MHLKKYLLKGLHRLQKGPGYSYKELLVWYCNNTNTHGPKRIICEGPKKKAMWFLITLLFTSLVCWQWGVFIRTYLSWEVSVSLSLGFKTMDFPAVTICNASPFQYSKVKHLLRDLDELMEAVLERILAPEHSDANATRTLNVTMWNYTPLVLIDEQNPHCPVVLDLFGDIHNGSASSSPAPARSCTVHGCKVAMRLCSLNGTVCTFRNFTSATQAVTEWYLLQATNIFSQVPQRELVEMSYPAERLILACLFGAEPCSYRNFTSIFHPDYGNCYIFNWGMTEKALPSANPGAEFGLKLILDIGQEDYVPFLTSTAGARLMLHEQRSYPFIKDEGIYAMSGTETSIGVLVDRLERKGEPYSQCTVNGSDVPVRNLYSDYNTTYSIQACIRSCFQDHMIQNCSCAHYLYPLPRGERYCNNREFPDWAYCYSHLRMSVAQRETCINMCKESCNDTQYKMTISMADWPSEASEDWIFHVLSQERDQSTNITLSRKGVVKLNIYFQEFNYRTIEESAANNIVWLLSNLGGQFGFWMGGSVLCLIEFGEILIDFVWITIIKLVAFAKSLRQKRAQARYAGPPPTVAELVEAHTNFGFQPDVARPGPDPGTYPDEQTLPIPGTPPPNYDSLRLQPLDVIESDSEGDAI
Method: In Vitro Measure of Sodium Channel Blocking Activity and Reversibility
One assay used to assess mechanism of action and/or potency of the compounds of the present invention involves the determination of lumenal drug inhibition of airway epithelial sodium currents measured under short circuit current (ISC) using airway epithelial monolayers mounted in Ussing chambers. Cells obtained from freshly excised human, dog, sheep or rodent airways are seeded onto porous 0.4 micron Snapwell™ Inserts (CoStar), cultured at air-liquid interface (ALI) conditions in hormonally defined media, and assayed for sodium transport activity (ISC) while bathed in Krebs Bicarbonate Ringer (KBR) in Using chambers. All test drug additions are to the lumenal bath with half-log dose addition protocols (from 1×10^−11 M to 3×10^−5 M), and the cumulative change in ISC (inhibition) recorded. All drugs are prepared in dimethyl sulfoxide as stock solutions at a concentration of 1×10^−2 M and stored at −20° C. Eight preparations are typically run in parallel; two preparations per run incorporate amiloride and/or benzamil as positive controls. After the maximal concentration (5×10^−5 M) is administered, the lumenal bath is exchanged three times with fresh drug-free KBR solution, and the resultant ISC measured after each wash for approximately 5 minutes in duration. Reversibility is defined as the percent return to the baseline value for sodium current after the third wash. All data from the voltage clamps are collected via a computer interface and analyzed off-line.
Dose-effect relationships for all compounds are considered and analyzed by the Prism 3.0 program. IC50 values, maximal effective concentrations, and reversibility are calculated and compared to amiloride and benzamil as positive controls.

[2] = Selected Alaphatic Pyrazinoylguanidines (Formula II)
[3] = Selected Cyclic Pyrazinoylguanidines (Formula III)
[4] = Selected Cyclic Pyrazinoylguanidines (Formula III), read-out: EC50

melting point: 208 to 210 °C (dec.)
SMILES: CC(C)(C)OC(=O)N=C(NCCCCCCCCNC(=N)NC(=O)c1nc(Cl)c(N)nc1N)NC(=O)OC(C)(C)C

SMILES: N=C(NCCCCCCCCCCCN)NC(=O)c1nc(Cl)c(N)nc1N (as salt: hydrochloride) [compound 23682, N-(11-aminoundecyl)-N′-(3,5-diamino-6-chloropyrazine-2-carbonyl)guanidine dihydrochloride]
melting point: 220 to 222 °C

SMILES: N=C(N)NCCCCCCCCCCNC(=N)NC(=O)c1nc(Cl)c(N)nc1N (as salt: hydrochloride) [compound 23608, N-{10-[N′-(3,5-diamino-6-chloropyrazine-2-carbonyl)guanidino]-decyl}guanidine dihydrochloride]
melting point: 156 to 158 °C

melting point: 87 to 90 °C
SMILES: N=C(NCCOCCOCCN)NC(=O)c1nc(Cl)c(N)nc1N

SMILES: N=C(NCCCCCCCCN)NC(=O)c1nc(Cl)c(N)nc1N (as salt: hydrochloride) [compound 19336, N-(8-aminooctyl)-N′-(3,5-diamino-6-chloropyrazine-2-carbonyl)-guanidine dihydrochloride]
melting point: 253 to 255 °C

melting point: 164 to 166 °C (dec.)
SMILES: N=C(NCCCOCCCN)NC(=O)c1nc(Cl)c(N)nc1N (as salt: hydrochloride)

SMILES: N=C(N)NCCCCCCCCCNC(=N)NC(=O)c1nc(Cl)c(N)nc1N (as salt: hydrochloride) [compound 19006, N-{9-[N′-(3,5-diamino-6-chloropyrazine-2-carbonyl)guanidino]nonyl}guanidine dihydrochloride]
melting point: 178 to 180 °C

SMILES: CN(C)C(=O)COc1ccc(CCCCNC(=N)NC(=O)c2nc(Cl)c(N)nc2N)cc1 (as salt: hydrochloride) [compound 16313, 2-(4-{4-[N-(3,5-diamino-6-chloropyrazine-2-carbonyl)guanidino]-butyl}phenoxy)-N,N-dimethylacetamide hydrochloride]
melting point: 130 to 132 °C (dec.)

SMILES: N=C(N)NCCCCCCCCCCCNC(=N)NC(=O)c1nc(Cl)c(N)nc1N (as salt: hydrochloride) [compound 23991, N-{11-[N′-(3,5-diamino-6-chloropyrazine-2-carbonyl)guanidino]-undecyl}guanidine dihydrochloride]
melting point: 151 to 153 °C

SMILES: N=C(N)NCCCCCCCNC(=N)NC(=O)c1nc(Cl)c(N)nc1N [compound 19155, N-{7-[N′-(3,5-diamino-6-chloropyrazine-2-carbonyl)guanidino]heptyl}guanidine dihydrochloride]
Fold Amiloride** (PSA 4022 = 100) ([1]; Alaphatic Pyrazinoylguanidines): 8 ± 7
EC50 [1, 2]: 81 ± 45 nM

SMILES: N=C(NCCCCC1CCN(CCO)CC1)NC(=O)c1nc(Cl)c(N)nc1N [compound 25193, N-(3,5-diamino-6-chloropyrazine-2-carbonyl)-N′-{4-[1-(2-hydroxyethyl)piperidin-4-yl]butyl}guanidine dihydrochloride]
Fold Amiloride** (PSA 4022 = 100) ([1]; Cyclic Pyrazinoylguanidines): 8 ± 3
EC50 [1, 3]: 99 ± 14 nM

SMILES: N=C(NCCCCc1ccc(OCC(=O)Nc2ncc[nH]2)cc1)NC(=O)c1nc(Cl)c(N)nc1N [compound 16437, 2-(4-{4-[N′-(3,5-diamino-6-chloropyrazine-2-carbonyl)guanidino]-butyl}phenoxy)-N-(1H-imidazol-2-yl)acetamide dihydrochloride]
Fold Amiloride** (PSA 4022 = 100) ([1]; Capped Pyrazinoylguanidines): 77 ± 53

SMILES: N=C(N)NCCCCCCCCCCNC(=N)NC(=O)c1nc(Cl)c(N)nc1N [compound 23608, N-{10-[N′-(3,5-diamino-6-chloropyrazine-2-carbonyl)guanidino]-decyl}guanidine dihydrochloride]
Fold Amiloride** (PSA 4022 = 100) ([1]; Alaphatic Pyrazinoylguanidines): 41 ± 29
EC50 [1, 2]: 17 ± 8 nM

SMILES: CC(C)(C)OC(=O)N=C(NCCCN1CCC(CCCCNC(=N)NC(=O)c2nc(Cl)c(N)nc2N)CC1)NC(=O)OC(C)(C)C [compound 25569, N-(3,5-Diamino-6-chloropyrazine-2-carbonyl)-N′-{4-[1-(3-[N″,N′″-bis-tert-butoxycarbonyl]guanidinopropyl)piperidin-4-yl]butyl}guanidine]
Fold Amiloride** (PSA 4022 = 100) ([1]; Cyclic Pyrazinoylguanidines): 41 ± 9
EC50 [1, 4]: 16 ± 3 nM

SMILES: N=C(NCCCCC1CCN(CCCO)CC1)NC(=O)c1nc(Cl)c(N)nc1N [compound 25310, N-(3,5-Diamino-6-chloropyrazine-2-carbonyl)-N′-{4-[1-(3-hydroxypropyl)piperidin-4-yl]butyl}guanidine dihydrochloride]
Fold Amiloride** (PSA 4022 = 100) ([1]; Cyclic Pyrazinoylguanidines): 5 ± 2
EC50 [1, 3]: 169 ± 47 nM

SMILES: N=C(NCCCCCCCCCCN)NC(=O)c1nc(Cl)c(N)nc1N [compound 19487, N-(10-aminodecyl)-N′-(3,5-diamino-6-chloropyrazine-2-carbonyl)-guanidine dihydrochloride]
Fold Amiloride** (PSA 4022 = 100) ([1]; Alaphatic Pyrazinoylguanidines): 37 ± 1
EC50 [1, 2]: 25 ± 11 nM

SMILES: Cl.Cl.Cl.N=C(NCCCCC1CCN(CCN)CC1)NC(=O)c1nc(Cl)c(N)nc1N [compound 25455, N-{4-[1-(2-Aminoethyl)piperidin-4-yl]butyl}-N′-(3,5-diamino-6-chloropyrazine-2-carbonyl)guanidine trihydrochloride]
Fold Amiloride** (PSA 4022 = 100) ([1]; Cyclic Pyrazinoylguanidines): 5 ± 1
EC50 [1, 4]: 104 ± 32 nM

SMILES: N=C(NCCCCCCN)NC(=O)c1nc(Cl)c(N)nc1N [compound 18706, N-(6-aminohexyl)-N′-(3,5-diamino-6-chloropyrazine-2-carbonyl)guanidine dihydrochloride]
Fold Amiloride** (PSA 4022 = 100) ([1]; Alaphatic Pyrazinoylguanidines): 4 ± 1
EC50 [1, 2]: 254 ± 118 nM

SMILES: N=C(NCCCCCCCCCCCCN)NC(=O)c1nc(Cl)c(N)nc1N [compound 23609, N-(12-aminododecyl)-N′-(3,5-diamino-6-chloropyrazine-2-carbonyl)-guanidine dihydrochloride]
Fold Amiloride** (PSA 4022 = 100) ([1]; Alaphatic Pyrazinoylguanidines): 66 ± 36
EC50 [1, 2]: 13 ± 7 nM

SMILES: N=C(NCCCCc1ccc(C[C@@H](N)CC(=O)O)cc1)NC(=O)c1nc(Cl)c(N)nc1N [compound 24407]
Fold Amiloride** (PSA 4022 = 100) ([1]; Capped Pyrazinoylguanidines): 23 ± 4
